ChEMBL document CHEMBL3868620, “Synthesis, DNA binding and antitrypanosomal activity of benzimidazole analogues of DAPI” (Bioorg Med Chem Lett, 2016)

Experiments:
[1] = Binding affinity to poly(dA-dT)n DNA (unknown origin) assessed as change in melting temperature at 0.3 molar ratio of compound:DNA by spectrophotometric analysis
[2] = test system: Trypanosoma brucei rhodesiense; experiment: Antitrypanosomal activity against bloodstream form of Trypanosoma brucei rhodesiense STIB900 after 70 hrs by Alamar blue assay; type: functional; settings: STIB900, 70 h
[3] = Cytotoxicity against rat L6 cells assessed as reduction in cell viability after 70 hrs by Alamar blue assay; type: toxicity
[4] = Selectivity index, ratio OF IC50 for rat L6 cells to IC50 for bloodstream form of Trypanosoma brucei rhodesiense STIB900; type: functional

Row | SMILES | ΔTm [1] [°C] | IC50 [2] [nM] | IC50 at 70 h [3] [µM] | Ratio IC50 [4]
1 | N=C(N)c1ccc(-c2nc3cc(C(=N)N)ccc3[nH]2)cc1 | 24.7 | 31 | 26.3 | 848
2 | N=C(N)c1ccc2nc(-c3ccc(C(=N)N)s3)[nH]c2c1 | 25.2 | 19 | 26.7 | 1405
3 | N=C(N)c1ccc(-c2cc3ccc(C(=N)N)cc3[nH]2)cc1 [DAPI] | > 27 | – | 0.86 | 48
4 | N=C(N)c1ccc2nc(-c3ccc(C(=N)N)o3)[nH]c2c1 | 10.1 | 48 | 150 | 3229
5 | c1cc2nc(-c3ccc(C4=NCCN4)s3)[nH]c2cc1C1=NCCN1 | 26 | 67 | 129 | 1925

Further lines, with some results ahead:

Row | ΔTm [1] [°C] | IC50 [2] [nM] | SMILES | IC50 at 70 h [3] [µM] | Ratio IC50 [4]
6 | 2 | 529 | N=C(N)c1ccc(-c2nc3cc(C(=N)N)ccc3n2C2CCCCC2)cc1 | > 162 | >306
7 | 5.5 | 64 | CCn1c(-c2ccc(C(=N)N)cc2)nc2cc(C(=N)N)ccc21 | > 207 | >3234
8 | 1.1 | 8430 | N=C(N)c1ccc(-c2nc3ccc(C(=N)N)cc3n2O)cc1 | > 210 | >25
9 | 2.5 | 31 | CCCn1c(-c2ccc(C(=N)N)cc2)nc2cc(C(=N)N)ccc21 | > 137 | >4419
10 | 8 | 15 | Cn1c(-c2ccc(C(=N)N)cc2)nc2cc(C(=N)N)ccc21 | > 169 | >11266
